Earlier results on one molecule are cited in PMC7135267, “Modified linear regression predicts drug-target interactions accurately” (PLoS ONE, 2020).

This data set deals with CFTR. As to conditions: rats, caffeine intake.

On to `Cn1c(=O)c2c(ncn2C)n(C)c1=O` [D00528, Caffeine], for which the “CFTR chloride secretion in intestine” value was “increased”.
